Assay results: ChEMBL document CHEMBL1201862, “PubChem BioAssay data set” (2004)
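How tested: cells in 96-well plates exposed to compound for 48 hours at five concentrations. At the GI50, growth is halved.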 The source made the active and inactive calls. Cut-off read from the data, not from the text of the source: active = GI50 up to about 1.1 µM and inactive = higher.

How the values were obtained:
Assay in all cases: inhibition of tumour cell growth, NCI panel, 48 h
OVCAR-8 = tested on: OVCAR-8
MDA-MB-435 = tested on: MDA-MB-435
HCT-15 = tested on: HCT-15
HCT-116 = tested on: HCT-116
SK-OV-3 = tested on: SK-OV-3
SF-268 = tested on: SF-268
SF-539 = tested on: SF-539
M14 = tested on: M14
NCI-H23 = tested on: NCI-H23
SK-MEL-28 = tested on: SK-MEL-28
UACC-257 = tested on: UACC-257
TK-10 = tested on: TK-10
UACC-62 = tested on: UACC-62
A498 = tested on: A498
OVCAR-3 = tested on: OVCAR-3
MDA-MB-231 = tested on: MDA-MB-231
K562 = tested on: K562
MOLT-4 = tested on: MOLT-4
A549 = tested on: A549
ACHN = tested on: ACHN
SNB-19 = tested on: SNB-19
UO-31 = tested on: UO-31
MCF7 = tested on: MCF7
OVCAR-5 = tested on: OVCAR-5
RPMI-8226 = tested on: RPMI-8226
NCI-H226 = tested on: NCI-H226
U-251 = tested on: U-251
SK-MEL-2 = tested on: SK-MEL-2
LOX IMVI = tested on: LOX IMVI
T47D = tested on: T47D
SW-620 = tested on: SW-620
NCI-H460 = tested on: NCI-H460
HOP-62 = tested on: HOP-62
786-0 = tested on: 786-0
EKVX = tested on: EKVX
HCC 2998 = tested on: HCC 2998
BT-549 = tested on: BT-549
SN12C = tested on: SN12C
DU-145 = tested on: DU-145
COLO 205 = tested on: COLO 205
Malme-3M = tested on: Malme-3M
HOP-92 = tested on: HOP-92
IGROV-1 = tested on: IGROV-1
MDA-N = tested on: MDA-N
KM12 = tested on: KM12
Hs-578T = tested on: Hs-578T
RXF 393 = tested on: RXF 393
NCI-H522 = tested on: NCI-H522
CAKI-1 = tested on: CAKI-1
SNB-75 = tested on: SNB-75
OVCAR-4 = tested on: OVCAR-4
NCI/ADR-RES = tested on: NCI/ADR-RES
HT-29 = tested on: HT-29
SF-295 = tested on: SF-295
PC-3 = tested on: PC-3
CCRF-CEM = tested on: CCRF-CEM
HL-60 = tested on: HL-60
SK-MEL-5 = tested on: SK-MEL-5

With `CCCCSC1=N/C(=C\c2ccc(N(C)C)cc2)C(Cl)=N1` the GI50 (OVCAR-8) was > 100 µM (inactive), the GI50 (MDA-MB-435) was > 100 µM (inactive) and the GI50 (HCT-15) was > 100 µM. For the same molecule, the GI50 (HCT-116) was > 100 µM (inactive), the GI50 (SK-OV-3) was > 100 µM (inactive) and the GI50 (SF-268) was > 100 µM (inactive). The GI50 (SF-539) was > 100 µM (inactive), the GI50 (M14) was > 100 µM (inactive) and the GI50 (NCI-H23) was > 100 µM (inactive). The GI50 (SK-MEL-28) was > 100 µM (inactive), the GI50 (UACC-257) was > 100 µM (inactive) and the GI50 (TK-10) was > 100 µM (inactive). The GI50 (UACC-62) was 94.4 µM (inactive), the GI50 (A498) was 78.2 µM (inactive) and the GI50 (OVCAR-3) was > 100 µM (inactive). For the same molecule, the GI50 (MDA-MB-231) was > 100 µM (inactive), the GI50 (K562) was > 100 µM (inactive) and the GI50 (MOLT-4) was > 100 µM (inactive). For the same molecule, the GI50 (A549) was > 100 µM (inactive), the GI50 (ACHN) was > 100 µM (inactive) and the GI50 (SNB-19) was > 100 µM (inactive). The GI50 (UO-31) was > 100 µM (inactive), the GI50 (MCF7) was > 100 µM (inactive) and the GI50 (OVCAR-5) was > 100 µM (inactive). The GI50 (RPMI-8226) was > 100 µM (inactive), the GI50 (NCI-H226) was > 100 µM (inactive) and the GI50 (U-251) was > 100 µM (inactive). For the same molecule, the GI50 (SK-MEL-2) was > 100 µM (inactive), the GI50 (LOX IMVI) was > 100 µM (inactive) and the GI50 (T47D) was > 100 µM (inactive). The GI50 (SW-620) was > 100 µM (inactive), the GI50 (NCI-H460) was > 100 µM (inactive) and the GI50 (HOP-62) was > 100 µM (inactive). The GI50 (786-0) was > 100 µM (inactive), the GI50 (EKVX) was 89.5 µM (inactive) and the GI50 (HCC 2998) was > 100 µM (inactive). The GI50 (BT-549) was > 100 µM (inactive), the GI50 (SN12C) was > 100 µM (inactive) and the GI50 (DU-145) was > 100 µM (inactive). For the same molecule, the GI50 (COLO 205) was > 100 µM (inactive), the GI50 (Malme-3M) was > 100 µM (inactive) and the GI50 (HOP-92) was > 100 µM (inactive). For the same molecule, the GI50 (IGROV-1) was > 100 µM (inactive), the GI50 (MDA-N) was > 100 µM (inactive) and the GI50 (KM12) was > 100 µM (inactive). For the same molecule, the GI50 (Hs-578T) was > 100 µM (inactive), the GI50 (RXF 393) was > 100 µM (inactive) and the GI50 (NCI-H522) was > 100 µM (inactive). For the same molecule, the GI50 (CAKI-1) was > 100 µM (inactive), the GI50 (SNB-75) was > 100 µM (inactive) and the GI50 (OVCAR-4) was > 100 µM (inactive). The GI50 (NCI/ADR-RES) was > 100 µM (inactive), the GI50 (HT-29) was > 100 µM (inactive) and the GI50 (SF-295) was > 100 µM (inactive). The GI50 (PC-3) was 76.6 µM (inactive).
For `CN(C)c1ccc(/C=C(\NC(=O)c2ccccc2)c2nn(C)c(=O)o2)cc1`, the GI50 (OVCAR-8) was 26.7 µM (inactive), the GI50 (CCRF-CEM) was 34.7 µM (inactive) and the GI50 (MDA-MB-435) was 69 µM (inactive). The GI50 (HCT-15) was > 100 µM, the GI50 (HCT-116) was > 100 µM (inactive) and the GI50 (SK-OV-3) was > 100 µM (inactive). The GI50 (SF-268) was 44.1 µM (inactive), the GI50 (SF-539) was 33.5 µM (inactive) and the GI50 (M14) was 46 µM (inactive). For the same molecule, the GI50 (NCI-H23) was > 100 µM (inactive), the GI50 (SK-MEL-28) was > 100 µM (inactive) and the GI50 (UACC-257) was 33 µM (inactive). For the same molecule, the GI50 (TK-10) was > 100 µM (inactive), the GI50 (UACC-62) was > 100 µM (inactive) and the GI50 (A498) was > 100 µM (inactive). The GI50 (HL-60) was 34.6 µM (inactive), the GI50 (OVCAR-3) was 43.9 µM (inactive) and the GI50 (MDA-MB-231) was > 100 µM (inactive). The GI50 (K562) was > 100 µM (inactive), the GI50 (MOLT-4) was 35.3 µM (inactive) and the GI50 (A549) was > 100 µM (inactive). The GI50 (ACHN) was > 100 µM (inactive), the GI50 (SNB-19) was 28.1 µM (inactive) and the GI50 (UO-31) was > 100 µM (inactive). For the same molecule, the GI50 (MCF7) was > 100 µM (inactive), the GI50 (OVCAR-5) was > 100 µM (inactive) and the GI50 (RPMI-8226) was 32 µM (inactive). For the same molecule, the GI50 (NCI-H226) was 23.4 µM (inactive), the GI50 (U-251) was 24 µM (inactive) and the GI50 (SK-MEL-2) was 52.5 µM (inactive). For the same molecule, the GI50 (LOX IMVI) was 60.1 µM (inactive), the GI50 (T47D) was > 100 µM (inactive) and the GI50 (SW-620) was 52 µM (inactive). For the same molecule, the GI50 (NCI-H460) was 44.4 µM (inactive), the GI50 (HOP-62) was 18.1 µM (inactive) and the GI50 (786-0) was 41.5 µM (inactive). The GI50 (EKVX) was > 100 µM (inactive), the GI50 (HCC 2998) was > 100 µM (inactive) and the GI50 (BT-549) was > 100 µM (inactive). The GI50 (SN12C) was > 100 µM (inactive), the GI50 (DU-145) was > 100 µM (inactive) and the GI50 (COLO 205) was > 100 µM (inactive). The GI50 (Malme-3M) was 78.2 µM (inactive), the GI50 (SK-MEL-5) was 26.3 µM (inactive) and the GI50 (HOP-92) was > 100 µM (inactive). For the same molecule, the GI50 (IGROV-1) was 58.6 µM (inactive), the GI50 (MDA-N) was 53.6 µM (inactive) and the GI50 (KM12) was 37.6 µM (inactive). For the same molecule, the GI50 (Hs-578T) was 62.1 µM (inactive), the GI50 (RXF 393) was > 100 µM (inactive) and the GI50 (NCI-H522) was 17.6 µM (inactive). For the same molecule, the GI50 (CAKI-1) was > 100 µM (inactive), the GI50 (SNB-75) was 16.9 µM (inactive) and the GI50 (OVCAR-4) was 28.9 µM (inactive). The GI50 (NCI/ADR-RES) was 21.7 µM (inactive), the GI50 (HT-29) was 90.8 µM (inactive) and the GI50 (SF-295) was 47.5 µM (inactive). The GI50 (PC-3) was > 100 µM (inactive).
